Assay results from patent publication US20090233942A1, “Genetic markers associated with response to antidepressants” (priority 2008, published 2009).

Tested on: adult patients diagnosed with MDD
Assay: Eight-week randomized, double-blind, placebo-controlled study: association of sequenced gene markers (Tables 1-17) with vilazodone response as change of MADRS
Assay type: in vivo, human
Details: mean MADRS decrease
Excerpt: There was a wide range of inter-individual variability in response to vilazodone as well as to placebo and the active comparators. This variability may be partially due to genetic differences among the individuals treated. This example illustrates a randomized, double-blind, placebo-controlled, multicenter, eight-week study designed to discover genetic markers of response to vilazodone in adult patients diagnosed with MDD by the DSM-IV-TR criteria. Patients must have met all of the following inclusion criteria to be considered for enrollment in the study: (1) 18-65 years of age; (2) diagnosis of MDD, single episode or recurrent, according to DSM-IV-TR (296.2/296.3) with a current Major Depressive Episode of less than one year's duration with a minimum duration of at least 4 weeks; (3) HAM-D score≧22 on the first 17 items of the 21-item HAM-D at screening and baseline visits; (4) HAM-D item 1 (depressed mood) score≧2 at the screening visit and the baseline visit; (5) provision of written informed consent to participate; and (6) ability to speak, read and understand English and to respond to questions and follow simple instructions.
Following randomization into vilazodone and placebo groups, patients began the forced titration schedule. Patients received 10 mg qd until Visit 3 (approximately Day 7). At Visit 3 patients received 20 mg qd until Visit 4 (approximately Day 14). At Visit 4 patients received the target dose of 40 mg qd (approximately Day 15). A total of 152 patients completed the vilazodone arm, while 154 patients completed the placebo arm.
This example illustrates genotyping of the study group for the ACE, ATP5C3, BCL2L1, CYP2C9, DRD3, FOS, DTNBP1, GABRG3, GRIA4, LAMA4, MAPK1, NPY1R, OPRD1, OPRM1, PER3, PLCB1, and PSMD1 polymorphic sites selected by the inventors herein for analysis. Genomic DNA was isolated from blood obtained from each individual and amplified target regions containing the polymorphic sites in Tables A-21 to A-37 (Appendix A) were sequenced to determine the genotypes at these polymorphic sites. Tailed (Universal M13 Forward and Reverse) PCR primers were designed using the sequence of SEQ ID NO:1 for ACE, SEQ ID NO:2 for ATP5C3, SEQ ID NO:3 for BCL2L1, SEQ ID NO:4 for CYP2C9, SEQ ID NO:5 for DRD3, SEQ ID NO:6 for FOS, SEQ ID NO:7 for DTNBP1, SEQ ID NO:8 for GABRG3, SEQ ID NO:9 for GRIA4, SEQ ID NO:10 for LAMA4, SEQ ID NO:11 for MAPK1, SEQ ID NO:12 for NPY1R, SEQ ID NO:13 for OPRD1, SEQ ID NO:14 for OPRM1, SEQ ID NO:15 for PER3, SEQ ID NO:16 for PLCB1, and SEQ ID NO:17 for PSMD1. Amplified PCR products were sequenced using Applied Biosystems' Big Dye® Terminator v 3.1 cycle sequencing kit according to manufacturer's instructions. The reaction products were then electrophoresed using an Applied Biosystems 3700 or 3730xl DNA analyzer. Polymorphisms were identified using the Polyphred program, and confirmed by visual inspection.
Haplotypes were estimated from the unphased genotypes using a computer-implemented algorithm for assigning haplotypes to unrelated individuals in a population sample, essentially as described in WO 01/80156. In this method, haplotypes are assigned directly from individuals who are homozygous at all sites or heterozygous at no more than one of the variable sites. This list of haplotypes is then used to deconvolute the unphased genotypes in the remaining (multiply heterozygous) individuals.
This example illustrates analysis of the markers in Tables A-1 to A-17 (Appendix A) for association with vilazodone response. A proprietary algorithm was used as a tool for finding associations between markers and outcomes. The clinical outcomes were improvement in disease over eight weeks of treatment with vilazodone as measured by the MADRS scale. A linear model was first fitted on the covariates, which were treatment center, race, ethnicity, and baseline values. […]

[1] = PLCB1 marker 54, carriers vs non-carriers
[2] = PLCB1 marker 55, carriers vs non-carriers
[3] = PLCB1 marker 56, carriers vs non-carriers
[4] = PLCB1 marker 57, carriers vs non-carriers
[5] = PLCB1 marker 58, carriers vs non-carriers
[6] = PLCB1 marker 59, carriers vs non-carriers
[7] = PLCB1 marker 60, carriers vs non-carriers
[8] = PLCB1 marker 61, carriers vs non-carriers
[9] = PLCB1 marker 62, carriers vs non-carriers
[10] = PLCB1 marker 63, carriers vs non-carriers
[11] = PLCB1 marker 64, carriers vs non-carriers
[12] = PLCB1 marker 65, carriers vs non-carriers
[13] = PLCB1 marker 66, carriers vs non-carriers
[14] = PLCB1 marker 67, carriers vs non-carriers
[15] = PLCB1 marker 68, carriers vs non-carriers
[16] = PLCB1 marker 96, carriers vs non-carriers
[17] = PLCB1 marker 97, carriers vs non-carriers
[18] = PLCB1 marker 98, carriers vs non-carriers
[19] = PLCB1 marker 99, carriers vs non-carriers
[20] = PLCB1 marker 100, carriers vs non-carriers
[21] = PLCB1 marker 101, carriers vs non-carriers
[22] = PLCB1 marker 102, carriers vs non-carriers
[23] = PLCB1 marker 103, carriers vs non-carriers
[24] = PLCB1 marker 104, carriers vs non-carriers
[25] = PLCB1 marker 105, carriers vs non-carriers
[26] = PLCB1 marker 106, carriers vs non-carriers
[27] = PLCB1 marker 107, carriers vs non-carriers
[28] = PLCB1 marker 108, carriers vs non-carriers
[29] = PLCB1 marker 109, carriers vs non-carriers
[30] = PLCB1 marker 110, carriers vs non-carriers
[31] = PLCB1 marker 111, carriers vs non-carriers
[32] = PLCB1 marker 112, carriers vs non-carriers
[33] = PLCB1 marker 113, carriers vs non-carriers
[34] = PLCB1 marker 114, carriers vs non-carriers
[35] = PLCB1 marker 115, carriers vs non-carriers
[36] = PLCB1 marker 116, carriers vs non-carriers
[37] = PLCB1 marker 117, carriers vs non-carriers
[38] = PLCB1 marker 118, carriers vs non-carriers
[39] = PLCB1 marker 119, carriers vs non-carriers
[40] = PLCB1 marker 120, carriers vs non-carriers
[41] = PLCB1 marker 121, carriers vs non-carriers
[42] = PLCB1 marker 122, carriers vs non-carriers
[43] = PLCB1 marker 123, carriers vs non-carriers
[44] = PLCB1 marker 124, carriers vs non-carriers
[45] = PLCB1 marker 125, carriers vs non-carriers
[46] = PLCB1 marker 126, carriers vs non-carriers
[47] = PLCB1 marker 127, carriers vs non-carriers
[48] = PLCB1 marker 128, carriers vs non-carriers
[49] = PLCB1 marker 129, carriers vs non-carriers
[50] = PLCB1 marker 130, carriers vs non-carriers

Cl.N#Cc1ccc2[nH]cc(CCCCN3CCN(c4ccc5oc(C(N)=O)cc5c4)CC3)c2c1 [Vilazodone, 5-{4-[4-(5-Cyano-3-indolyl)-butyl]-1-piperazinyl}-benzofuran-2-carboxamide hydrochloride]
Response difference (Cauc. only) [1]: −6.6
Response difference (all ethnic.) [1]: −5.1
Response difference (Cauc. only) [2]: −5.9
Response difference (all ethnic.) [2]: −4.3
Response difference (Cauc. only) [3]: −6
Response difference (all ethnic.) [3]: −4.3
Response difference (Cauc. only) [4]: −6
Response difference (all ethnic.) [4]: −4.3
Response difference (Cauc. only) [5]: −5.4
Response difference (all ethnic.) [5]: −3.9
Response difference (Cauc. only) [6]: −6.4
Response difference (all ethnic.) [6]: −5.1
Response difference (Cauc. only) [7]: −5.8
Response difference (all ethnic.) [7]: −4.6
Response difference (Cauc. only) [8]: −6.4
Response difference (all ethnic.) [8]: −5.2
Response difference (Cauc. only) [9]: −7
Response difference (all ethnic.) [9]: −5.6
Response difference (Cauc. only) [10]: −7
Response difference (all ethnic.) [10]: −5.6
Response difference (Cauc. only) [11]: −7
Response difference (all ethnic.) [11]: −5.6
Response difference (Cauc. only) [12]: −7
Response difference (all ethnic.) [12]: −5.6
Response difference (Cauc. only) [13]: −7
Response difference (all ethnic.) [13]: −5.6
Response difference (Cauc. only) [14]: −7
Response difference (all ethnic.) [14]: −5.6
Response difference (Cauc. only) [15]: −7
Response difference (all ethnic.) [15]: −5.6
Response difference (Cauc. only) [16]: −7.3
Response difference (all ethnic.) [16]: −4.2
Response difference (Cauc. only) [17]: −7.3
Response difference (all ethnic.) [17]: −4.2
Response difference (Cauc. only) [18]: −7.3
Response difference (all ethnic.) [18]: −4.2
Response difference (Cauc. only) [19]: −7.3
Response difference (all ethnic.) [19]: −4.2
Response difference (Cauc. only) [20]: −7.3
Response difference (all ethnic.) [20]: −4.2
Response difference (Cauc. only) [21]: −6
Response difference (all ethnic.) [21]: −4.7
Response difference (Cauc. only) [22]: −6
Response difference (all ethnic.) [22]: −4.7
Response difference (Cauc. only) [23]: −6.6
Response difference (all ethnic.) [23]: −4.6
Response difference (Cauc. only) [24]: −6.6
Response difference (all ethnic.) [24]: −4.6
Response difference (Cauc. only) [25]: −6.6
Response difference (all ethnic.) [25]: −4.6
Response difference (Cauc. only) [26]: −6.6
Response difference (all ethnic.) [26]: −4.6
Response difference (Cauc. only) [27]: −6.6
Response difference (all ethnic.) [27]: −4.6
Response difference (Cauc. only) [28]: −6.6
Response difference (all ethnic.) [28]: −4.6
Response difference (Cauc. only) [29]: −6.6
Response difference (all ethnic.) [29]: −4.6
Response difference (Cauc. only) [30]: −6.7
Response difference (all ethnic.) [30]: −4.7
Response difference (Cauc. only) [31]: −6.7
Response difference (all ethnic.) [31]: −4.7
Response difference (Cauc. only) [32]: −6.7
Response difference (all ethnic.) [32]: −4.7
Response difference (Cauc. only) [33]: −6.7
Response difference (all ethnic.) [33]: −4.7
Response difference (Cauc. only) [34]: −6.7
Response difference (all ethnic.) [34]: −4.7
Response difference (Cauc. only) [35]: −6.7
Response difference (all ethnic.) [35]: −4.7
Response difference (Cauc. only) [36]: −6.7
Response difference (all ethnic.) [36]: −4.7
Response difference (Cauc. only) [37]: −6.7
Response difference (all ethnic.) [37]: −4.7
Response difference (Cauc. only) [38]: −6.7
Response difference (all ethnic.) [38]: −4.7
Response difference (Cauc. only) [39]: −6.7
Response difference (all ethnic.) [39]: −4.7
Response difference (Cauc. only) [40]: −6.7
Response difference (all ethnic.) [40]: −4.7
Response difference (Cauc. only) [41]: −6.7
Response difference (all ethnic.) [41]: −4.7
Response difference (Cauc. only) [42]: −6.7
Response difference (all ethnic.) [42]: −4.7
Response difference (Cauc. only) [43]: −6.7
Response difference (all ethnic.) [43]: −4.7
Response difference (Cauc. only) [44]: −5.9
Response difference (all ethnic.) [44]: −4.2
Response difference (Cauc. only) [45]: −5.9
Response difference (all ethnic.) [45]: −4.2
Response difference (Cauc. only) [46]: −5.9
Response difference (all ethnic.) [46]: −4.2
Response difference (Cauc. only) [47]: −5.9
Response difference (all ethnic.) [47]: −4.2
Response difference (Cauc. only) [48]: −5.9
Response difference (all ethnic.) [48]: −4.2
Response difference (Cauc. only) [49]: −5.9
Response difference (all ethnic.) [49]: −4.2
Response difference (Cauc. only) [50]: −5.9
Response difference (all ethnic.) [50]: −4.2
